“Also recorded” adds a separate entry of the source.
Key:
fruit flies [1] = assay: Comparison of erythritol with other sweet alcohols, fly longevity; type: in vivo, Drosophila melanogaster; conditions: 1 M in standard fly food, 17 days
Experimental: An experiment was conducted to compare the effectiveness of erythritol with other human-safe sweet alcohols: D-mannitol, maltitol, sucrose, and xylitol. The concentration of all sweet alcohols were 1M.
Flies were raised for 17 days on standard fly food that contained 1 M concentrations of each sweetener treatment. Death of flies was recorded daily as before; each treatment was replicated on three vials of 10 flies each for 30 subjects/treatment. Differences in longevity were analyzed using the Kaplan-Meier survival analysis log rank test, making all pairwise comparisons among treatments.

Drosophila melanogaster [2] = assay: Drosophila longevity assay on food containing sweeteners; type: in vivo; conditions: repeat with blue food, 0.0238 g/ml
Experimental: All animals were cultured at 25° C., kept at 50-60% humidity, and were raised under a standard 12:12 light dark cycle. For each experimental treatment, n=30 flies were tested in groups of 10 per tube, and three tubes per treatment. Tubes were kept on their side to minimize subject becoming mired in the food. Foods were replaced twice a week. The total number of fruit flies used for these experiments was 780, with 300 used for two initial trials testing mortality among store-brand sweeteners, 210 used for repeating this with blue dye and pure erythritol, 120 for choice trials and 150 for concentration trials.
Standard Drosophila food for larval culturing consisted of water, cornmeal, yeast, molasses, and agar, as previously described (Chakraborty, et al., 2011, PLoS ONE 6: e20799). […] The addition of cornmeal and yeast assured the flies still received sufficient carbohydrates and protein in addition to any effects of the treatment additives.
Drosophila food was combined with an equal weight/volume (0.0238 g/ml) of one non-nutritive sweetener (TRUVIA, EQUAL, SPLENDA, SWEET'NLOW, or PUREVIA) or a control nutritive sweetener (controls: sucrose or corn syrup). Wild type (Canton S) larvae were initially raised on the standard food, and 0-12 hour old adult flies were transferred to foods containing one non-nutritive sweetener or a control treatment. […] The number of dead flies were scored daily.

Drosophila melanogaster [3] = assay: Two-way choice experiments, fly longevity; type: in vivo
Experimental: Foods containing 2 M erythritol, 1M erythritol and 1M sucrose were prepared for paired presentations in open choice tests. In each treatment one food type contained 0.05% brilliant blue FCF (Fisher 50-727-25). The blue dye allowed visual confirmation of feeding on the dyed food in the pair. The flies were presented with access to two food choices by using a modified cotton stopper with approximately a 1.5 cm diameter hole to connect each pair of food tubes.
The final choice treatment was between blue 2M erythritol food and non-blue 1M sucrose food (this treatment provides a comparison with the 1M erythritol/1M erythritol treatment as a test of dilution of toxicity by alternative food sources; blue guts would confirm erythritol was being consumed in the presence of sucrose). The number of flies with visible blue gut contents and mortality daily were recorded for 30 days.
(§1) Analyses were conducted with SPSS software v. 20 (IBM corporation 2011). Fly longevity data were analyzed using survival analysis with right-hand censoring of subjects that lived to the end of the study or were lost for reasons other than death. Test were run for differences in survival distributions [Pr(flies alive) versus insect age] using the log-rank (Mantel-Cox) test to make all pairwise comparisons among treatments within each experiment.

R. flavipes workers = assay: Termite survival experiment on erythritol-treated paper; type: in vivo, Reticulitermes flavipes
Experimental: Termites used in the survival and choice experiments were collected from three field colonies in Scotland Run Park (39.66° N, 75.05° W) in Clayton, NJ between April and May 2019. After collection, colonies were maintained in plastic containers with soil and wood from the collection site as a substrate in laboratory conditions (20.8±0.9° C., 49±7% RH). Termites used in the consumption experiment were collected from a single field colony at Cobb's Creek Park (39.94° N, 75.24° W) in Philadelphia, PA during September of 2018. Workers were removed from the log and housed within 24 h of collection in 9 cm diameter petri dishes containing damp paper towel as a food source. Dishes were placed in an incubator at 26° C. (relative humidity varied between 40 and 60% across trials, but was consistent among all treatments within each trial). Each petri dish contained 10 workers. Termites used in all experiments measured 3-4 mm in length.
For the survival experiment, unbleached, brown paper towels (12 cmx 24 cm, cat no. 01801, Kimberly-Clark Corporation, Neenah, WI), were completely submerged for 15 s in solution of distilled water, erythritol (100% purity, NOW foods, Bloomingdale, IL) of the below-specified concentrations, and 0.05% Brilliant Blue R-250 dye (cat. no 27816, Sigma-Aldrich, St. Louis, MO). The erythritol concentrations used were: 0 M (control), 0.25 M, 0.5 M, 0.75 M, 1.0 M, and 1.25 M. The treated paper towels were removed from solution and allowed to dry horizontally on racks before being cut into squares with an area of 144 cm^2. […]
Following the pretrial period, the experiment was set up: pretrial paper towels were removed and replaced with treated paper towels of the correct erythritol treatment concentration; these were rehydrated with 750 μL of distilled water. […] Termite mortality was recorded every 24 h for 8 d.
Analyses were performed using SPSS v. […] Mean percent mortality was calculated for each concentration across colonies at 72 and 96 h and a three parameter, best-fit sigmoid curve was fitted to the data in Sigmaplot to assess LC at these time points.

[4] = humans, even in high concentrations; cited from earlier work
Drosophila melanogaster [5] = assay: Erythritol concentration trials on fly longevity; type: in vivo
Experimental: as §1, with “Standard fly foods were prepared as previously described, and then were treated with 2M, 1M, 0.5M and 0.1M concentrations of erythritol, using 0.5M sucrose as control. 0 to 24 hour-old Drosophila were placed on these foods and mortality was recorded daily for 35 days as above. Analyses” for “Analyses”

fruit flies [6] = conditions: 0.5 M erythritol food, previous work; cited from earlier work

In the case of `OC[C@@H](O)[C@@H](O[C@H]1O[C@H](CO)[C@@H](O)[C@H](O)[C@H]1O)[C@H](O)[C@@H](O)CO` [maltitol], the “fly longevity / insecticidal effect compared to sucrose control” value (fruit flies [1]) is reported as “did not differ from sugar control; also recorded: did not differ from the control; also recorded: not effective at reducing fly longevity”.

With `OC[C@@H](O)[C@@H](O)[C@H](O)[C@H](O)CO` [D-mannitol] the “fly longevity / insecticidal effect compared to sucrose control” value (fruit flies [1]) was “did not differ from sugar control; also recorded: slightly but significantly reduced longevity; also recorded: almost insignificant insecticidal effect”.

In the case of `OC[C@@H](O)[C@@H](O)CO` [erythritol, (2R,3S)-butane-1,2,3,4-tetraol], the “longevity compared to PUREVIA, EQUAL, sucrose and corn syrup (FIG. 3)” value (Drosophila melanogaster [2]) is reported as “significant decrease in longevity”, the “longevity relative to sucrose:sucrose choice (FIG. 5)” value (Drosophila melanogaster [3]; choice between 1M sucrose and 1M erythritol) is reported as “significant decrease in longevity; also recorded: significantly decreased longevity” and the “longevity relative to sucrose:sucrose choice (FIG. 5)” value (Drosophila melanogaster [3]; choice between 1M sucrose and 2M erythritol) is reported as “significant decrease in longevity; also recorded: significantly reduced”. The “longevity of workers to 8 d, erythritol treatments versus 0M control (FIG. 9)” value (R. flavipes workers; 0.25-1.25 M treated paper, 8 d) was “All treatments are significantly different from 0 M; also recorded: differed significantly”, the “lowest concentration with significant effects on longevity” value (R. flavipes workers; R. flavipes workers, 8 d) was 0.25 M and the “time to 50% mortality” value (R. flavipes workers; termites, 0.5 M erythritol filter papers) was ≤ 2 days. The “fly longevity / insecticidal effect compared to sucrose control” value (fruit flies [1]) was “toxic to fruit flies upon ingestion”, the mean fly longevity (fruit flies [1]) was 4.7 ± 0.15 days and the safety of consumption [4] was “safe to humans”. For the same molecule, the “longevity compared to control food containing 0.5M sucrose” value (Drosophila melanogaster [5]; 0.1M in food, 35 days) was “no significant difference in longevity”, the “dose response of fly longevity (FIG. 4)” value (Drosophila melanogaster [5]; 0.1M, 0.5M, 1.0M and 2.0M in food) was “significant decrease in longevity of adult flies as concentration of erythritol was increased; also recorded: dose-dependent reduction in longevity” and the “longevity compared to control food containing 0.5M sucrose” value (Drosophila melanogaster [5]; 0.5M in food, 35 days) was “significant reductions in longevity”. The “longevity compared to control food containing 0.5M sucrose” value (Drosophila melanogaster [5]; 1M in food, 35 days) was “significant reductions in longevity”, the “longevity compared to all other treatments” value (Drosophila melanogaster [5]; 2M in food, 35 days) was “significant and severe effect on longevity” and the “time to 50% mortality” value (fruit flies [6]) was 20 days.

In the case of `OC[C@@H](O)[C@H](O)[C@@H](O)CO` [xylitol], the “fly longevity / insecticidal effect compared to sucrose control” value (fruit flies [1]) is reported as “did not differ from sugar control; also recorded: did not differ from the control; also recorded: not effective at reducing fly longevity”.

Reference: US12059000B1, “Use of erythritol compositions as mammal-safe insecticides” (Drexel University, priority 2020, dated 2024)
